{"source": "paper PMC12016938", "about": "“A small molecule PKCε inhibitor reduces hyperalgesia induced by paclitaxel or opioid withdrawal” (JCI Insight, 2025)", "key": {"[1]": {"tested_on": "hyperalgesia induced by morphine withdrawal", "assay": "Time course of hyperalgesia induced by morphine withdrawal, von Frey SUDO", "conditions": "for von Frey filament number that led to paw withdrawal: single male mouse; for Hyperalgesia after withdrawal from repeated morphine: male C57BL/6J mice, 20–100 mg/kg i.p. twice daily 5 days", "quoted_text": "Mice received repeated injections of saline (10 mL/kg, i.p.) or morphine (20–100 mg/kg, i.p.) twice daily for 5 days, to induce dependence.\nMechanical nociceptive thresholds in mice were quantified using the simplified up-down (SUDO) method with von Frey filaments ([36]). […] The force to bend the filaments ranged from 0.008 g (filament 1) to 6 g (filament 12). Mice were acclimated to the test room and apparatus for 1 hour prior to testing. We started testing mice with filament 5 (bending force 0.16 g) and stepped up or down according to the response of the mouse. The filament that elicited a definite paw withdrawal or notable flinch was recorded. All measures were averaged between both hind paws and are expressed as filament number, which allows for parametric analysis ([36]). The higher the filament number, the higher the pain threshold (and the lower the sensitivity to pain). Prior to starting experiments, baseline threshold levels were obtained 3–4 times at 2- to 5-day intervals on each of the hind paws of the mouse.\nMorphine dependence in mice was induced by repeated i.p. injections (10 mL/kg) of morphine administered at increasing doses, over 5 days (day 1: 20 mg/kg, day 2: 40 mg/kg, day 3: 60 mg/kg, day 4: 80 mg/kg, day 5: 100 mg/kg). Injections of each dose were administered twice daily, 6 hours apart."}, "PKN1 (Protein kinase N1)": {"molecular_target": "T1, PKN1 (Protein kinase N1) (Homo sapiens, UniProt Q16512)", "T1 construct": "purchased Eurofins-DiscoverX", "T1 sequence (Q16512 whole entry)": "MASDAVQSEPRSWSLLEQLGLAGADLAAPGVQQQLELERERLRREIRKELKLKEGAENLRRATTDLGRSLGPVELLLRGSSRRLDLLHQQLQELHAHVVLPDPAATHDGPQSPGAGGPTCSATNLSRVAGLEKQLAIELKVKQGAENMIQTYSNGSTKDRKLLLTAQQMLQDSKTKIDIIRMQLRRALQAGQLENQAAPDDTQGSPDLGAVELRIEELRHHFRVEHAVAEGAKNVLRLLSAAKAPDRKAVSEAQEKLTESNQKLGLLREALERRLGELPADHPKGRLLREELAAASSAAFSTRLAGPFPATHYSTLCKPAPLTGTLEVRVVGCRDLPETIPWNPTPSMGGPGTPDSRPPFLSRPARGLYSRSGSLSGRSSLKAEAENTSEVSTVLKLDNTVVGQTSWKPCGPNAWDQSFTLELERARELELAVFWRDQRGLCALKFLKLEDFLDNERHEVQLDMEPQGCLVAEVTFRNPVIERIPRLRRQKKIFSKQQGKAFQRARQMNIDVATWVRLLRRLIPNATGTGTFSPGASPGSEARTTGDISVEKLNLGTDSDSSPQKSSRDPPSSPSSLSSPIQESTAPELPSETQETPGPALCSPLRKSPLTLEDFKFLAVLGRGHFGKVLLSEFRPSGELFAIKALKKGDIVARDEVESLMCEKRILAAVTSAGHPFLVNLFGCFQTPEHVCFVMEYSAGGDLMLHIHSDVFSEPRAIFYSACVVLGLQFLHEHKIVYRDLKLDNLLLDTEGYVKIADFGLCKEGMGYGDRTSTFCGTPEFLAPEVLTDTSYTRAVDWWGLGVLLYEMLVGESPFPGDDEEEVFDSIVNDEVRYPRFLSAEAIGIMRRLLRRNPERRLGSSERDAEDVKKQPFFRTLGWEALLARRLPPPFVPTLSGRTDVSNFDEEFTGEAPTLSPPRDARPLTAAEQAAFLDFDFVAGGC", "assay": "scanMax kinome panel, PKN1", "assay_type": "binding", "conditions": "200 nM CP612; read-out: scanMax % of control, PKN1", "experimental": "CP612 was screened for kinome specificity at 200 nM against 468 kinases using the scanMax assay panel from Eurofins-DiscoverX. CP612 inhibited 10 other WT kinases besides PKCε, all to < 10% of control: CLK1 (CDC Like Kinase 1), CLK4, PKN1 (Protein kinase N1), PKN2, PKCδ, PKCη, PKCθ, PRKG2 (Protein Kinase CGMP-Dependent 2), ROCK1, and ROCK2."}, "[2]": {"tested_on": "somatic signs of morphine withdrawal", "assay": "Somatic signs of morphine withdrawal precipitated by naloxone", "assay_type": "in vivo, DBA/2J mice", "design": "key to Score: Rearing / Score: Teeth chatter / Score: Body shakes / Score: Wall climbing / Score: Backpedaling / Score: Hopping: score of 1 per occurrence and episode; key to Global Withdrawal Score (sum of all scores): sum of behavior scores, 1 point per occurrence/episode", "conditions": "for Global Withdrawal Score (sum of all scores) / Score: Backpedaling / Score: Body shakes / Score: Hopping / Score: Rearing / Score: Teeth chatter / Score: Wall climbing: individual mice, 20 min interval; for Global Withdrawal Score (sum of all scores): after naloxone (5 mg/kg, i.p.); for Score: Backpedaling / Score: Body shakes / Score: Hopping / Score: Rearing / Score: Teeth chatter / Score: Wall climbing: number of observations after naloxone (5 mg/kg, i.p.)", "experimental": "In addition to hyperalgesia, withdrawal from repeated administration of morphine produces somatic signs of withdrawal and conditioned place aversion. We tested the effects of CP612 on these responses. […] Two hours after this last injection of saline or morphine, mice were administered naloxone (5 mg/kg, i.p.) to precipitate somatic signs of withdrawal and conditioned place aversion. Withdrawal from repeated administration of morphine evoked somatic signs of withdrawal (Figure 11, A–C, and Supplemental Figure 2); only the highest dose of CP612 (40 mg/kg) reduced them (Figure 11, A–C) [H PKC inhibition (3, n = 62) = 33.34, P < 0.001]. Withdrawal from repeated administration of morphine also evoked conditioned place aversion (Figure 11, A and C) [F PKC inhibition (5,78) = 7.16, P < 0.001; mice receiving repeated administration of saline with vehicle versus mice receiving repeated administration of morphine with vehicle, P < 0.001], and this was not modified by CP612 at any dose tested (all P > 0.079).\nThe place conditioning apparatus was an acrylic box enclosed in light- and sound-attenuating, ventilated chambers (MED Associates). The box had 2 compartments separated by a removable sliding door. […] The dimensions of each compartment were 13.5 × 27 × 17 cm. Infrared light beams and photodetectors located along the walls of the box measured general activity and location of the mouse in each compartment, which were recorded using Activity Monitor version 7.0.5.10 software (Med Associates). On day 0 (pretest), drug-naive mice were acclimated for 15 minutes to the place conditioning apparatus without the sliding door, so they had free access to both compartments of the apparatus. This established a baseline side preference, based on the amount of time spent in each compartment. […] On day 6 (conditioning day), mice were pretreated with vehicle (10 mL/kg, i.p.) or CP612 (5, 10, 20, or 40 mg/kg, i.p.), followed by a single injection of morphine (100 mg/kg, i.p.) 4 hours later. Two hours after this last injection of morphine, mice were administered naloxone (5 mg/kg, i.p.), to precipitate withdrawal, and were immediately confined to 1 side of the conditioning apparatus for 20 minutes. During this conditioning period, mice were filmed (Raspberry Pi Camera) to assess somatic signs of withdrawal ([39]). Given the limited number of cameras and the poor quality of some videos, we were only able to film a subset of mice. The following behaviors were given a score of 1 per occurrence and episode: body shakes (paw tremors and wet dog shakes), teeth chatter, rearing, hopping, wall climbing, and backpedaling. These scores were summed to obtain a global withdrawal score and were obtained from an independent observer who was blind to the experimental conditions. A subset of videos was scored by 2 observers, to ensure internal validity (Cronbach’s α = 0.980, Correlation Observer r = 0.97, slope 1.15, P < 0.005). On day 7 (test day), mice were placed in the conditioning apparatus with free access to both compartments, for 15 minutes. We recorded the time spent in each compartment.\nGregory-Flores et al. (Supplementary Table and Figures)\nFigure S2. Behavioral scores of morphine withdrawal precipitated by naloxone. Male mice"}, "[3]": {"assay": "Plasma protein binding, equilibrium dialysis (RED)", "assay_type": "in vitro ADME, human", "conditions": "for recovery at 4 h, 10 µM: Rapid Equilibrium Dialysis (RED) device", "experimental": "Plasma protein binding. Binding of CP612 to human plasma proteins was measured by equilibrium dialysis using a Rapid Equilibrium Dialysis (RED) Device (Thermo Fisher Scientific). The device uses plates with wells preloaded with equilibrium dialysis membrane inserts, each of which includes 2 side-by-side chambers separated by a dialysis membrane. […] All compounds were tested in triplicate. […] A total of 200 μL of diluted test compound was then added to the plasma chambers of triplicate wells of a 48-sample RED plate (Thermo Fisher Scientific). In total, 400 μL of 0.1M PBS buffer were added to each buffer chamber. The plate was sealed with adhesive foil and incubated at 37°C with shaking for 4 hours, after which 30 μL were removed from each chamber and diluted with either 30 μL of plasma (for buffer chamber samples) or 30 μL of 0.1M PBS (for plasma chamber samples). Samples were extracted with 3 volumes of acetonitrile, centrifuged at 16,000g at 4°C for 10 minutes, and analyzed by LC-MS to calculate the amount of drug in each chamber. The percentage of free compound was calculated as the concentration in the buffer chamber/concentration in the plasma chamber × 100%. The percentage of protein-bound compound was calculated as 100% – the percentage of free compound."}}, "note": "Values joined by “and” are separate entries in the source; they are usually repeats but may differ in a detail not shown here. Identical values can stand only once. “Also recorded” adds a separate entry of the source. Counter-ions that a name gives are not always drawn. Like-named read-outs stand apart in the source and are kept apart here.", "data": [{"smiles": "CN1CC[C@]23c4c5ccc(O)c4O[C@H]2[C@@H](O)C=C[C@H]3[C@H]1C5", "note": "[Morphine, Morphine sulfate, reference compound]", "values": [{"measurement": "von Frey filament number that led to paw withdrawal", "setting": "[1]; 1week after last morphine injection", "result": "5.5 filament number and 7.5 filament number and 6 filament number"}, {"measurement": "von Frey filament number that led to paw withdrawal", "setting": "[1]; 6h after last morphine injection", "result": "7.5 filament number and 9.5 filament number and 8 filament number and 7 filament number"}, {"measurement": "von Frey filament number that led to paw withdrawal", "setting": "[1]; 24h after last morphine injection", "result": "5.5 filament number and 6.5 filament number and 6 filament number and 7.5 filament number"}, {"measurement": "von Frey filament number that led to paw withdrawal", "setting": "[1]; Baseline", "result": "7.5 filament number and 8.5 filament number and 8 filament number and 9.5 filament number"}, {"measurement": "Hyperalgesia after withdrawal from repeated morphine", "setting": "[1]; 6 hours after last injection", "result": "not present"}, {"measurement": "Hyperalgesia after withdrawal from repeated morphine", "setting": "[1]; 24 hours and 1 week after last injection", "result": "present"}]}, {"smiles": "N[C@H](CNC(=O)C1(c2ccc(Cl)cc2)CCCC1)c1ccc(C(=O)Nc2ccncc2)cc1", "note": "[CP612]", "values": [{"measurement": "remaining binding at 0.2 µM", "setting": "PKN1 (Protein kinase N1)", "result": "< 10", "unit": "%"}, {"measurement": "Global Withdrawal Score (sum of all scores)", "setting": "[2]; Morphine + CP612 10 mg/kg", "result": "26 and 36 and 21 and 32 and 23 and 19 and 28 and 25 and 22 and 8 and 11 and 13 and 12"}, {"measurement": "Score: Backpedaling", "setting": "[2]; Morphine + CP612 10 mg/kg", "result": "0 and 2 and 1"}, {"measurement": "Score: Body shakes", "setting": "[2]; Morphine + CP612 10 mg/kg", "result": "6 and 9 and 7 and 10 and 2 and 11 and 8 and 1"}, {"measurement": "Score: Hopping", "setting": "[2]; Morphine + CP612 10 mg/kg", "result": "0 and 1"}, {"measurement": "Score: Rearing", "setting": "[2]; Morphine + CP612 10 mg/kg", "result": "16 and 15 and 9 and 10 and 7 and 13 and 12 and 2 and 3 and 8"}, {"measurement": "Score: Teeth chatter", "setting": "[2]; Morphine + CP612 10 mg/kg", "result": "3 and 4 and 2 and 0 and 1"}, {"measurement": "Score: Wall climbing", "setting": "[2]; Morphine + CP612 10 mg/kg", "result": "1 and 7 and 2 and 3 and 0 and 4 and 5"}, {"measurement": "Global Withdrawal Score (sum of all scores)", "setting": "[2]; Morphine + CP612 40 mg/kg", "result": "17 and 23 and 18 and 11 and 8 and 4 and 10 and 13 and 9"}, {"measurement": "Score: Backpedaling", "setting": "[2]; Morphine + CP612 40 mg/kg", "result": "3.5 and 0 and 1"}, {"measurement": "Score: Body shakes", "setting": "[2]; Morphine + CP612 40 mg/kg", "result": "1 and 5 and 9 and 2 and 0"}, {"measurement": "Score: Hopping", "setting": "[2]; Morphine + CP612 40 mg/kg", "result": "0.5 and 0 and 1"}, {"measurement": "Score: Rearing", "setting": "[2]; Morphine + CP612 40 mg/kg", "result": "9 and 14 and 2 and 4 and 1 and 6 and 7 and 8"}, {"measurement": "Score: Teeth chatter", "setting": "[2]; Morphine + CP612 40 mg/kg", "result": "0.5 and 3 and 5 and 2 and 1 and 0"}, {"measurement": "Score: Wall climbing", "setting": "[2]; Morphine + CP612 40 mg/kg", "result": "2 and 1 and 0 and 3"}, {"measurement": "Somatic signs of naloxone-precipitated morphine withdrawal", "setting": "[2]; male DBA/2J mice, CP612 10 mg/kg i.p. (low dose)", "result": "evoked signs of withdrawal"}, {"measurement": "Effect on somatic signs of naloxone-precipitated morphine withdrawal", "setting": "[2]; male DBA/2J mice, CP612 40 mg/kg i.p., 40 mg/kg", "result": "attenuated; also recorded: reduced; also recorded: decreased"}, {"measurement": "% Free", "setting": "[3]; (Corrected concentration in PBS / Corrected concentration in Plasma) * 100, individual replicates", "result": "9.57% and 8.99%"}, {"measurement": "% Recovery", "setting": "[3]; PBS + Plasma relative to starting concentration of 10 uM, individual replicates", "result": "52.74% and 59.65%"}, {"measurement": "% Absolute (Sample_PBS)", "setting": "[3]; PBS compartment, relative to starting concentration of 10 uM, individual replicates", "result": "6.46% and 4.60% and 4.92%"}, {"measurement": "fraction unbound at 4 h, 10 μM", "setting": "[3]; human plasma, individual replicates, read-out: % Bound (converted)", "result": 0.121}, {"measurement": "fraction unbound at 4 h, 10 μM", "setting": "[3]; human, human plasma, 37°C, 4 hours, read-out: Plasma protein binding (% bound) (converted)", "result": 0.102}, {"measurement": "recovery at 4 h, 10 µM", "setting": "[3]; human, human plasma, PBS + Plasma relative to starting concentration of 10 uM, individual replicates, read-out: % Recovery", "result": 59.9, "unit": "%"}, {"measurement": "recovery at 4 h, 10 µM", "setting": "[3]; human, human plasma, PBS + Plasma relative to starting concentration of 10 uM, mean of replicates, read-out: % Recovery, Mean", "result": 57.4, "unit": "%"}, {"measurement": "fraction unbound at 4 h, 10 μM", "setting": "[3]; human, plasma, (Corrected concentration in PBS / Corrected concentration in Plasma) * 100, individual replicates, read-out: % Free", "result": 0.121}, {"measurement": "fraction unbound at 4 h, 10 μM", "setting": "[3]; human, plasma, mean of replicates, read-out: % Bound, Mean (converted)", "result": 0.102}, {"measurement": "fraction unbound at 4 h, 10 μM", "setting": "[3]; human, plasma, mean of replicates, read-out: % Free, Mean", "result": 0.102}, {"measurement": "% Bound", "setting": "[3]; individual replicates", "result": "90.43% and 91.01%"}, {"measurement": "% Absolute (Sample_Plasma)", "setting": "[3]; plasma compartment, relative to starting concentration of 10 uM, individual replicates", "result": "53.46% and 48.13% and 54.72%"}]}]}
